3 molecules from publication PMC11855212 (2025) can be followed below.

For orientation: KD means the equilibrium constant for the complex coming apart. A higher KD goes with a looser complex. A word on the ΔTm: it is the shift of the melting midpoint relative to a reference.

Bounds are passed on as bounds.

Assay [1] deals with RB promoter G-quadruplex, 5'-FAM (DNA, G4) CGGGGGGTTTTGGGCGGC
Put plainly: MST. The following applies: 100 mM K+; 50 mM Tris-HCl, pH 7.4, 25 °C.

Assay [2] has as its system RB G4 (RB promoter G-quadruplex) (DNA, G4) CGGGGGGTTTTGGGCGGC
The assay can be described thus: CD melting. The following applies: 100 mM K+; 50 mM Tris-HCl, pH 7.4; 2 μM DNA; compound concentration not in material.

In assay [3] the test system is c-jun G4 (DNA, G4) AAGGGGGGAGGGGGAGGGGGTT
Put plainly: SPR. The following applies: 100 mM K+; 50 mM Tris-HCl, pH 7.4, 25 °C.

Assay [4] concerns ACC2 IM (DNA, i motif) TGACCCGCCCCCGCCCCGCCCCTGT
The assay can be described thus: SPR. The following applies: 100 mM K+; 20 mM MES, pH 5.5, 25 °C.

Assay [5] relates to kras G4 (DNA, G4) AGGGCGGTGTGGGAAGAGGGAAGAGGGGGAGG
The assay can be described thus: SPR. The conditions noted are these: 100 mM K+; 50 mM Tris-HCl, pH 7.4, 25 °C.

Assay [6] relates to ACC2 G4 (DNA, G4) GGGGCGGGGCGGGGGCGGG
The assay can be described thus: SPR. The following applies: 100 mM K+; 50 mM Tris-HCl, pH 7.4, 25 °C.

Assay [7] relates to RB G4 (RB promoter G-quadruplex) (DNA, G4) CGGGGGGTTTTGGGCGGC
Put plainly: TO displacement fluorescence. The conditions noted are these: 100 mM K+; 50 mM Tris-HCl, pH 7.4, 25 °C; 1 μM DNA; thiazole orange (TO) displaced.

The subject of assay [8] is RB promoter i-motif, 5'-FAM (DNA, i motif) GCCGCCCAAAACCCCCCG
Put plainly: MST. The conditions noted are these: 100 mM K+; 20 mM MES, pH 5.5, 25 °C.

Assay [9] deals with RB IM (RB promoter i-motif) (DNA, i motif) GCCGCCCAAAACCCCCCG
The assay can be described thus: CD melting. The conditions noted are these: 100 mM K+; BPES buffer (pH 5.5 per i-motif experiments); 2 μM DNA; compound concentration not in material.

In assay [10] the test system is c-jun IM (DNA, i motif) TAACCCCCTCCCCCTCCCCCCTTTAAT
Put plainly: SPR. The conditions noted are these: 100 mM K+; 20 mM MES, pH 5.5, 25 °C.

Assay [11] concerns RB IM (RB promoter i-motif) (DNA, i motif) GCCGCCCAAAACCCCCCG
Put plainly: TO displacement fluorescence. The conditions noted are these: 100 mM K+; BPES buffer, pH 5.5, 25 °C; 1 μM DNA; thiazole orange (TO) displaced.

For assay [12] the test system is unchanged. Put plainly: SPR. The conditions noted are these: 100 mM K+; 20 mM MES, pH 5.5, 25 °C.
Assay [13] has as its system hairpin (DNA, hairpin) CGCGCGCGTTTTCGCGCGCG
The assay can be described thus: SPR. The following applies: 25 °C; highest concentration not stated.

In assay [14] the test system is RET G4 (DNA, G4) GGGGCGGGGCGGGGGGGGG
The assay can be described thus: SPR. The conditions noted are these: 100 mM K+; 50 mM Tris-HCl, pH 7.4, 25 °C.

Assay [15] has as its system RB IM, 5'-biotin (SPR) (DNA, i motif) GCCGCCCAAAACCCCCCG
Put plainly: SPR. The conditions noted are these: 100 mM K+, 20 mM MES, pH 5.5, 25 °C.

The subject of assay [16] is hairpin (DNA, hairpin) CGCGCGCGTTTTCGCGCGCG
The assay can be described thus: SPR. The conditions noted are these: buffer for hairpin not stated.

With `CN(CCCNc1c2ccccc2nc2ccccc12)CCCNc1c2ccccc2nc2ccccc12`, the KD in assay [1] was determined as 2.50 ± 0.65 µM; in assay [3], 43.9 µM; in assay [4], 41.7 µM; in assay [5] it was 32.5 µM; in [6], 53.1 µM; in [8], 0.43 ± 0.24 µM. The KD in assay [10] is 27.0 µM; in [12], 2.44 µM; in [13], greater than 50 µM; in assay [14] it was 30.9 µM. The ΔTm in assay [2] was −6.4 °C; in [9], −10.7 °C. For the same molecule, the DC50 worked out at 2.7 µM in assay [7] and 3.4 µM in [11].
For the molecule `Cc1ccc2nc3ccccc3c(NCCNCCNc3c4ccccc4nc4ccc(C)cc34)c2c1`, the KD in [1] was 0.50 ± 0.27 µM; in [15] (Table S2 prints 9.24), 13.6 µM; in assay [8] it was 18.06 ± 5.28 µM; in [16], greater than 50 µM. For the same molecule, in [2], the ΔTm is −9.9 °C.
With `C[n+]1c(/C=C/c2c3ccccc3cc3ccccc23)ccc2ccccc21`, the KD worked out at 36.7 µM in [15] (unit not printed in Table S2, μM in text) and 36.7 µM in [12].
